Test results taken from the kinase profiling compilation of Christmann-Franck et al. (2016).

How the values were obtained:
Test in all cases: KINOMEscan competition binding
Settings in all cases: compound 10.0 µM
ABL2 (human) = ABL2 (human) (UniProt P42684)
BMX (human) = BMX (human) (UniProt P51813)
CAMK1G (human) = CAMK1G (human) (UniProt Q96NX5)
DDR1 (human) = DDR1 (human) (UniProt Q08345)
[1] = tested on: EGFR (human), P00533 [A750P; 747-749 del]
EPHA3 (human) = EPHA3 (human) (UniProt P29320)
FGFR2 (human) = FGFR2 (human) (UniProt P21802)
FGFR3 (human) = FGFR3 (human) (UniProt P22607)
[2] = tested on: FGFR3 (human), P22607 [G697C]
FYN (human) = FYN (human) (UniProt P06241)
[3] = molecular target: JAK3 JH1 catalytic (human) (UniProt P52333)
[4] = tested on: KIT (human), P10721 [V559D/T670I]
LCK (human) = LCK (human) (UniProt P06239)
MYO3B (human) = MYO3B (human) (UniProt Q8WXR4)
[5] = tested on: RET (human), P07949 [V804M]
SIK1 (human) = SIK1 (human) (UniProt P57059)
STK10 (human) = STK10 (human) (UniProt O94804)
AKT2 (human) = AKT2 (human) (UniProt P31751)
CAMK2A (human) = CAMK2A (human) (UniProt Q9UQM7)
CAMK4 (human) = CAMK4 (human) (UniProt Q16566)
CAMKK1 (human) = CAMKK1 (human) (UniProt Q8N5S9)
CDK3 (human) = CDK3 (human) (UniProt Q00526)
CHEK2 (human) = CHEK2 (human) (UniProt O96017)
CSNK1E (human) = CSNK1E (human) (UniProt P49674)
CSNK2A2 (human) = CSNK2A2 (human) (UniProt P19784)
EPHA6 (human) = EPHA6 (human) (UniProt Q9UF33)
LIMK2 (human) = LIMK2 (human) (UniProt P53671)
MAP2K2 (human) = MAP2K2 (human) (UniProt P36507)
MAP3K12 (human) = MAP3K12 (human) (UniProt Q12852)
MAPK15 (human) = MAPK15 (human) (UniProt Q8TD08)
MAPK7 (human) = MAPK7 (human) (UniProt Q13164)
NTRK1 (human) = NTRK1 (human) (UniProt P04629)
PAK7 (human) = PAK7 (human) (UniProt Q9P286)
PDPK1 (human) = PDPK1 (human) (UniProt O15530)
PIK3CD (human) = PIK3CD (human) (UniProt O00329)
PIP4K2B (human) = PIP4K2B (human) (UniProt P78356)
PRKG1 (human) = PRKG1 (human) (UniProt Q13976)
RIPK4 (human) = RIPK4 (human) (UniProt P57078)
STK17A (human) = STK17A (human) (UniProt Q9UEE5)
STK17B (human) = STK17B (human) (UniProt O94768)
STK3 (human) = STK3 (human) (UniProt Q13188)
WEE2 (human) = WEE2 (human) (UniProt P0C1S8)

Chain of LCK (human) (P06239 whole entry, looked up): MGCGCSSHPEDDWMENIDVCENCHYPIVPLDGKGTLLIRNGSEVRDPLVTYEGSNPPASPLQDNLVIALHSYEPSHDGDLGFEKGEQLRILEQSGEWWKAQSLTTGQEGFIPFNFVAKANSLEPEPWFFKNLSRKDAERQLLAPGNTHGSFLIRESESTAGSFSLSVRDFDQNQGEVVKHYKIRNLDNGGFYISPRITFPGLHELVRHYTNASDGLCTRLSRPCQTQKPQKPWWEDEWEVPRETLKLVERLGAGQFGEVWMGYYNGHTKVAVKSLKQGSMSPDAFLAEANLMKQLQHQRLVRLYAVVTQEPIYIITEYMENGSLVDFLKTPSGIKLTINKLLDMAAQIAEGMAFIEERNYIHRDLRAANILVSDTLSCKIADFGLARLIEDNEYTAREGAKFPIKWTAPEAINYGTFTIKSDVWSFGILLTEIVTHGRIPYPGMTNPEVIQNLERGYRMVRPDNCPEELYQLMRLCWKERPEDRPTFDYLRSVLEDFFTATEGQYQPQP
Chain of FGFR3 (human), P22607 [G697C] (P22607 whole entry G697C, looked up): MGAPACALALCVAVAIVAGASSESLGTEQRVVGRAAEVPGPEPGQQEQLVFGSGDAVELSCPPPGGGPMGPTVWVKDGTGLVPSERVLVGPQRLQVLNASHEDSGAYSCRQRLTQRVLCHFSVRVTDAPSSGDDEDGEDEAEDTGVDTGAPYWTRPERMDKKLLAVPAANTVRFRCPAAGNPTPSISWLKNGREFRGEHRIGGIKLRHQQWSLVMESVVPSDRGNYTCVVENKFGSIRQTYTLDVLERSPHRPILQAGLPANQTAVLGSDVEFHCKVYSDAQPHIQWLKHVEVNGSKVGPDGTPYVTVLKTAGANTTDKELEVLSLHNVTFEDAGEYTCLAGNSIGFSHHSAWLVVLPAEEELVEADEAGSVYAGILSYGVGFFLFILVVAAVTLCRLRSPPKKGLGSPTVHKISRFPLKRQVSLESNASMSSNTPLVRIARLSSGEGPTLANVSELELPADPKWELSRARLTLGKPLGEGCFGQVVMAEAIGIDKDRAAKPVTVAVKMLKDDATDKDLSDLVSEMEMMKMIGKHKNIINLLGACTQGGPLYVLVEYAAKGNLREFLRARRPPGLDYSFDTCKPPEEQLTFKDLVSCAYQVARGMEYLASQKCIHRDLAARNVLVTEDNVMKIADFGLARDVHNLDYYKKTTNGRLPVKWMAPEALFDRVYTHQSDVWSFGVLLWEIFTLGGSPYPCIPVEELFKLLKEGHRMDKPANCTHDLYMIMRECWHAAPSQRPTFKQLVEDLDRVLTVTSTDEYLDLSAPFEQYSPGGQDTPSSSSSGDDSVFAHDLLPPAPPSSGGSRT
Chain of KIT (human), P10721 [V559D/T670I] (P10721 whole entry V559D/T670I, looked up): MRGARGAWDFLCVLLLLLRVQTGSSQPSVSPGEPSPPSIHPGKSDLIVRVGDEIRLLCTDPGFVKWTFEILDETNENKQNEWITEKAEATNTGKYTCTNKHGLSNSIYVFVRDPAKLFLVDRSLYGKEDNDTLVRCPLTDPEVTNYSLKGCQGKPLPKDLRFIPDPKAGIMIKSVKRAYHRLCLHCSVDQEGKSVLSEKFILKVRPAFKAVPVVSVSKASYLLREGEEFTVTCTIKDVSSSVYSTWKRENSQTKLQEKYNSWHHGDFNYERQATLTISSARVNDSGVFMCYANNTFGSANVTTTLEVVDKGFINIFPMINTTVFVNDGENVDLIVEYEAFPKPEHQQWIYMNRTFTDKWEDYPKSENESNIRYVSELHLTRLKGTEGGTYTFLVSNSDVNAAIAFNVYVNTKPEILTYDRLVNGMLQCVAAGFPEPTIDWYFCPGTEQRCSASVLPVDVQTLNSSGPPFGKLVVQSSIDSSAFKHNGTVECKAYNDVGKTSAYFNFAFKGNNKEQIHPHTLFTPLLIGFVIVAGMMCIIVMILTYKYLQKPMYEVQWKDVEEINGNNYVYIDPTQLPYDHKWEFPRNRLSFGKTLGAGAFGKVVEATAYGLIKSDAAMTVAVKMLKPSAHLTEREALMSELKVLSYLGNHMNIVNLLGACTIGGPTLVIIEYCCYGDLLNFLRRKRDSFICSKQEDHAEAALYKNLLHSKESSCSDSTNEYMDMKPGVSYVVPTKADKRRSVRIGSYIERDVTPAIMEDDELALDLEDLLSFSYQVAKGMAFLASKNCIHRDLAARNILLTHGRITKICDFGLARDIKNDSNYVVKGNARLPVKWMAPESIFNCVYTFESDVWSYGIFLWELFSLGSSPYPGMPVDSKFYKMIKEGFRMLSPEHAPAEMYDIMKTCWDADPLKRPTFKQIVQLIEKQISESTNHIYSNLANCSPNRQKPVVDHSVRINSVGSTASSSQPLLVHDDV
Chain of MYO3B (human) (Q8WXR4 whole entry, looked up): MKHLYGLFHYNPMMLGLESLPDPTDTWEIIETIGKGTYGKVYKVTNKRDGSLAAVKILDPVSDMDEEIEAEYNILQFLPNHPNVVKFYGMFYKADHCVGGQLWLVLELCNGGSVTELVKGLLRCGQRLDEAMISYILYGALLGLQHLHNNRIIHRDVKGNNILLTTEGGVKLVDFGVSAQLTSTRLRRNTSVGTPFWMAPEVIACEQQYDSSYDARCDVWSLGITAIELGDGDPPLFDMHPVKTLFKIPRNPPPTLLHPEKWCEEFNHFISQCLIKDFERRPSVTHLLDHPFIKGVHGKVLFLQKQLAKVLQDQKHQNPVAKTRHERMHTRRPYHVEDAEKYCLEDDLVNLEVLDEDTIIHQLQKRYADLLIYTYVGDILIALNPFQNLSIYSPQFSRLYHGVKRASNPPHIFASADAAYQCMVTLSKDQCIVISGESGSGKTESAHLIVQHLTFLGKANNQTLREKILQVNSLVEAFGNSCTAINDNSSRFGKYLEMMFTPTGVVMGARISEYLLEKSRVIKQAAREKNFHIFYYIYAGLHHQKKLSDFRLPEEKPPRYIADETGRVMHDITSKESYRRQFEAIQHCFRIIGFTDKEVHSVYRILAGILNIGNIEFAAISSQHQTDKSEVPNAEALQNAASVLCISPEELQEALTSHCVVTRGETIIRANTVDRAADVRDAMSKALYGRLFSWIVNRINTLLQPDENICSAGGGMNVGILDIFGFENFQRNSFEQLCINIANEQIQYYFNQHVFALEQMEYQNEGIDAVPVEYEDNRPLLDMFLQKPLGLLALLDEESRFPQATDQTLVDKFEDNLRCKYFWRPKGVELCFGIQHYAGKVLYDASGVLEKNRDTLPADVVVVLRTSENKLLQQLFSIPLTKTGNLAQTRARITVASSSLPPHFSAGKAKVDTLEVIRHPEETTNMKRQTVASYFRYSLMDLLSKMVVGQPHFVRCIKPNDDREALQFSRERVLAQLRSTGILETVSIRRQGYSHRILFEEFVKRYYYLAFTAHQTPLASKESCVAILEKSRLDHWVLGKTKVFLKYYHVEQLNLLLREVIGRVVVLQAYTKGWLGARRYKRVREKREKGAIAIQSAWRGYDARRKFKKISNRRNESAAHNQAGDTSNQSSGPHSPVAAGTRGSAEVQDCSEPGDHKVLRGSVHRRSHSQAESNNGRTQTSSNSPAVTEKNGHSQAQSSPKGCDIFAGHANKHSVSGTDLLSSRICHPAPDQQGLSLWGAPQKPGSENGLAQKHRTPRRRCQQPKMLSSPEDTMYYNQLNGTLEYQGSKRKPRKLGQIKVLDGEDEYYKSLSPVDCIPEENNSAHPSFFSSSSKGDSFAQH
Chain of DDR1 (human) (Q08345 whole entry, looked up): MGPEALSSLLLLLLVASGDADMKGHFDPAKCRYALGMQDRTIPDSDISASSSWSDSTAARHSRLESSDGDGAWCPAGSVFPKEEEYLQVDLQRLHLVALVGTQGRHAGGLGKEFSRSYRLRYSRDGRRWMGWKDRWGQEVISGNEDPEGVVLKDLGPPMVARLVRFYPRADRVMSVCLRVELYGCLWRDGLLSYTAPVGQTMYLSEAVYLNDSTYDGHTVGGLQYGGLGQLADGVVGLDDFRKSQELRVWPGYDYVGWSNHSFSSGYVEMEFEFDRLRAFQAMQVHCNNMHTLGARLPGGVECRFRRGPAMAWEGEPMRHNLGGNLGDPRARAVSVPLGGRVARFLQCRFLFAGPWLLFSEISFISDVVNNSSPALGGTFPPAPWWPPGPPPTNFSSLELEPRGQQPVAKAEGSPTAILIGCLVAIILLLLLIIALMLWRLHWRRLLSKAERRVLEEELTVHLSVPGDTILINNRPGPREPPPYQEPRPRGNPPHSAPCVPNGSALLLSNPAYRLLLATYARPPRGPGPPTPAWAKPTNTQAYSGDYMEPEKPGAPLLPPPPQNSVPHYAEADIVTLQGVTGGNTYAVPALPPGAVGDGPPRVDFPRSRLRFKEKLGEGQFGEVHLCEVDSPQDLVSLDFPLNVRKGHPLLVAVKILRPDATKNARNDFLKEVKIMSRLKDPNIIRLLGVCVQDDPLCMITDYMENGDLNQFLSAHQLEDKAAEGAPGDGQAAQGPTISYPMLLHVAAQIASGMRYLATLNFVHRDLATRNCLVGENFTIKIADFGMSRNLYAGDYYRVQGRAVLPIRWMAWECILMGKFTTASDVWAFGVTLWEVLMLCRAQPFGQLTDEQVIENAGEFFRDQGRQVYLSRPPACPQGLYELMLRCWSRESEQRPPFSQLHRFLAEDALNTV
Chain of FYN (human) (P06241 whole entry, looked up): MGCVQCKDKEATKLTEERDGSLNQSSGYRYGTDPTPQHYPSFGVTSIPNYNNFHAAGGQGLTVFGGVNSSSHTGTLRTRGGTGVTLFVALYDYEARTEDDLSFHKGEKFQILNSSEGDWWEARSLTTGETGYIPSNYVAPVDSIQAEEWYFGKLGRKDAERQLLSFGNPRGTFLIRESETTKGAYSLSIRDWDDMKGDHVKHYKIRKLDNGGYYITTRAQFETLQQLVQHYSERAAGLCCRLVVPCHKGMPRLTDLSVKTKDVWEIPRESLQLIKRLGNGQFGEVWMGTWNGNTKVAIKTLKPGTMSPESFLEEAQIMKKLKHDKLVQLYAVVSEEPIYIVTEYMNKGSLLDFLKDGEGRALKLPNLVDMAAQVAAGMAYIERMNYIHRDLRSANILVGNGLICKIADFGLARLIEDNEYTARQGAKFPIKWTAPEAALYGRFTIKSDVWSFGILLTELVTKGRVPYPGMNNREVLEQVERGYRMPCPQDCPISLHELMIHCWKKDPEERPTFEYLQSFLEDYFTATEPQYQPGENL

Compound `CCN1CCN(Cc2ccc(NC(=O)c3ccc(C)c(Oc4ccnc5[nH]ccc45)c3)cc2C(F)(F)F)CC1` has a kinase still bound, per cent of control (ABL2 (human)) of 0.6%, a kinase still bound, per cent of control (BMX (human)) of 2.4% and a kinase still bound, per cent of control (CAMK1G (human)) of 20%. For the same compound, the kinase still bound, per cent of control (DDR1 (human)) was 0.05%, the kinase still bound, per cent of control [1] was 1.5% and the kinase still bound, per cent of control (EPHA3 (human)) was 3.4%. The kinase still bound, per cent of control (FGFR2 (human)) was 1.4%, the kinase still bound, per cent of control (FGFR3 (human)) was 9.4% and the kinase still bound, per cent of control [2] was 16%. It also gave a kinase still bound, per cent of control (FYN (human)) of 1.6%, a kinase still bound, per cent of control [3] of 11% and a kinase still bound, per cent of control [4] of 0.05%. The kinase still bound, per cent of control (LCK (human)) was 0.8%, the kinase still bound, per cent of control (MYO3B (human)) was 4.8% and the kinase still bound, per cent of control [5] was 1%. The kinase still bound, per cent of control (SIK1 (human)) was 5.3% and the kinase still bound, per cent of control (STK10 (human)) was 0%.

Work on `COc1cc(N2CCC(N3CCN(C)CC3)CC2)ccc1Nc1ncc(Cl)c(Nc2ccccc2S(=O)(=O)C(C)C)n1` yielded a kinase still bound, per cent of control (ABL2 (human)) of 1.4%, a kinase still bound, per cent of control (AKT2 (human)) of 40% and a kinase still bound, per cent of control (CAMK2A (human)) of 1.2%. It also gave a kinase still bound, per cent of control (CAMK4 (human)) of 0.5%, a kinase still bound, per cent of control (CAMKK1 (human)) of 0.2% and a kinase still bound, per cent of control (CDK3 (human)) of 40%. For the same compound, the kinase still bound, per cent of control (CHEK2 (human)) was 0%, the kinase still bound, per cent of control (CSNK1E (human)) was 40% and the kinase still bound, per cent of control (CSNK2A2 (human)) was 40%. For the same compound, the kinase still bound, per cent of control (DDR1 (human)) was 0.05%, the kinase still bound, per cent of control [1] was 0% and the kinase still bound, per cent of control (EPHA3 (human)) was 40%. It also gave a kinase still bound, per cent of control (EPHA6 (human)) of 3.1%, a kinase still bound, per cent of control (FGFR2 (human)) of 0.95% and a kinase still bound, per cent of control (FGFR3 (human)) of 2.6%. The kinase still bound, per cent of control [2] was 0.25%, the kinase still bound, per cent of control (FYN (human)) was 5.6% and the kinase still bound, per cent of control [3] was 2%. For the same compound, the kinase still bound, per cent of control [4] was 0.95%, the kinase still bound, per cent of control (LCK (human)) was 0.1% and the kinase still bound, per cent of control (LIMK2 (human)) was 6.5%. The kinase still bound, per cent of control (MAP2K2 (human)) was 1.8%, the kinase still bound, per cent of control (MAP3K12 (human)) was 0% and the kinase still bound, per cent of control (MAPK15 (human)) was 0.25%. For the same compound, the kinase still bound, per cent of control (MAPK7 (human)) was 0%, the kinase still bound, per cent of control (MYO3B (human)) was 0.6% and the kinase still bound, per cent of control (NTRK1 (human)) was 12%. For the same compound, the kinase still bound, per cent of control (PAK7 (human)) was 2.7%, the kinase still bound, per cent of control (PDPK1 (human)) was 28% and the kinase still bound, per cent of control (PIK3CD (human)) was 40%. For the same compound, the kinase still bound, per cent of control (PIP4K2B (human)) was 11%, the kinase still bound, per cent of control (PRKG1 (human)) was 1.3% and the kinase still bound, per cent of control (RIPK4 (human)) was 40%. It also gave a kinase still bound, per cent of control (STK10 (human)) of 0%, a kinase still bound, per cent of control (STK17A (human)) of 5.9% and a kinase still bound, per cent of control (STK17B (human)) of 40%. The kinase still bound, per cent of control (STK3 (human)) was 0.25% and the kinase still bound, per cent of control (WEE2 (human)) was 40%.

`CCOc1cc(N2CCC(N3CCCCC3)CC2)ccc1Nc1nc(Nc2ccccc2S(=O)(=O)C(C)C)c2cn[nH]c2n1` gave a kinase still bound, per cent of control (ABL2 (human)) of 97%, a kinase still bound, per cent of control (AKT2 (human)) of 100% and a kinase still bound, per cent of control (BMX (human)) of 100%. It also gave a kinase still bound, per cent of control (CAMK1G (human)) of 26%, a kinase still bound, per cent of control (CAMK2A (human)) of 34% and a kinase still bound, per cent of control (CAMK4 (human)) of 1%. The kinase still bound, per cent of control (CAMKK1 (human)) was 46%, the kinase still bound, per cent of control (CDK3 (human)) was 85% and the kinase still bound, per cent of control (CHEK2 (human)) was 23%. For the same compound, the kinase still bound, per cent of control (CSNK1E (human)) was 74%, the kinase still bound, per cent of control (CSNK2A2 (human)) was 94% and the kinase still bound, per cent of control (DDR1 (human)) was 100%. It also gave a kinase still bound, per cent of control [1] of 10%, a kinase still bound, per cent of control (EPHA3 (human)) of 100% and a kinase still bound, per cent of control (EPHA6 (human)) of 100%. The kinase still bound, per cent of control (FGFR2 (human)) was 100%, the kinase still bound, per cent of control (FGFR3 (human)) was 94% and the kinase still bound, per cent of control [2] was 97%. It also gave a kinase still bound, per cent of control (FYN (human)) of 100%, a kinase still bound, per cent of control [3] of 84% and a kinase still bound, per cent of control [4] of 100%. For the same compound, the kinase still bound, per cent of control (LCK (human)) was 84%, the kinase still bound, per cent of control (LIMK2 (human)) was 51% and the kinase still bound, per cent of control (MAP2K2 (human)) was 94%. The kinase still bound, per cent of control (MAP3K12 (human)) was 100%, the kinase still bound, per cent of control (MAPK15 (human)) was 100% and the kinase still bound, per cent of control (MAPK7 (human)) was 0.9%. The kinase still bound, per cent of control (MYO3B (human)) was 18%, the kinase still bound, per cent of control (NTRK1 (human)) was 72% and the kinase still bound, per cent of control (PAK7 (human)) was 80%. It also gave a kinase still bound, per cent of control (PDPK1 (human)) of 100%, a kinase still bound, per cent of control (PIK3CD (human)) of 100% and a kinase still bound, per cent of control (PIP4K2B (human)) of 100%. The kinase still bound, per cent of control (PRKG1 (human)) was 100%, the kinase still bound, per cent of control [5] was 100% and the kinase still bound, per cent of control (RIPK4 (human)) was 76%. For the same compound, the kinase still bound, per cent of control (SIK1 (human)) was 100%, the kinase still bound, per cent of control (STK10 (human)) was 100% and the kinase still bound, per cent of control (STK17A (human)) was 100%. The kinase still bound, per cent of control (STK17B (human)) was 100%, the kinase still bound, per cent of control (STK3 (human)) was 100% and the kinase still bound, per cent of control (WEE2 (human)) was 100%.
